# Measured values from article PMC5218480 (PLoS ONE, 2017).
# Tested on: MV-4-11 cells
# Assay: Gene expression microarray analysis (Affymetrix PrimeView) and GSEA
# Format: cell-based, human
# Set-up: RFU PODN (11730768_x_at) / Fold change /veh PODN (11730768_x_at) / RFU LINC00158 (11744669_a_at) / Fold change /veh LINC00158 (11744669_a_at) / RFU DUSP10 (11751237_a_at) / Fold change /veh DUSP10 (11751237_a_at) / RFU ID3 (11757404_x_at) / Fold change /veh ID3 (11757404_x_at) / RFU PLEKHG5 (11737974_s_at) / Fold change /veh PLEKHG5 (11737974_s_at) / RFU LRRC4B (11730491_at) / Fold change /veh LRRC4B (11730491_at) / RFU GIMAP4 (11747438_a_at) / Fold change /veh GIMAP4 (11747438_a_at) / RFU KRT8 (11758183_x_at) / Fold change /veh KRT8 (11758183_x_at) / RFU CNN1 (11734310_a_at) / Fold change /veh CNN1 (11734310_a_at) / RFU VPS37D (11726825_at) / Fold change /veh VPS37D (11726825_at) / RFU C10orf10 (11716522_x_at) / Fold change /veh C10orf10 (11716522_x_at) / RFU KIR2DL2 /// KIR2DL4 /// KIR2DL5A /// KIR2DL5B /// KIR2DS1 /// KIR2DS2 /// KIR2DS3 /// KIR2DS4 /// KIR3DL3 /// KIR3DL3 /// KIR3DS1 (11738374_at) / Fold change /veh KIR2DL2 /// KIR2DL4 /// KIR2DL5A /// KIR2DL5B /// KIR2DS1 /// KIR2DS2 /// KIR2DS3 /// KIR2DS4 /// KIR3DL3 /// KIR3DL3 /// KIR3DS1 (11738374_at) / RFU C1QL1 (11718748_at) / Fold change /veh C1QL1 (11718748_at) / RFU TMPRSS4 (11747572_a_at) / Fold change /veh TMPRSS4 (11747572_a_at) / RFU HAMP (11756126_x_at) / Fold change /veh HAMP (11756126_x_at) / RFU RNFT2 (11725882_a_at) / Fold change /veh RNFT2 (11725882_a_at) / RFU NR4A2 (11747474_a_at) / Fold change /veh NR4A2 (11747474_a_at) / RFU ABCC12 (11746883_a_at) / Fold change /veh ABCC12 (11746883_a_at) / RFU TMEM136 (11760407_x_at) / Fold change /veh TMEM136 (11760407_x_at) / RFU CLDN22 /// WWC2 (11732394_at) / Fold change /veh CLDN22 /// WWC2 (11732394_at) / RFU HLA-DPB1 (11760878_x_at) / Fold change /veh HLA-DPB1 (11760878_x_at) / RFU SPINT1 (11716480_a_at) / Fold change /veh SPINT1 (11716480_a_at) / RFU GAP43 (11754022_s_at) / Fold change /veh GAP43 (11754022_s_at) / RFU A4GNT (11735810_at) / Fold change /veh A4GNT (11735810_at) / RFU PRB3 (11715151_x_at) / Fold change /veh PRB3 (11715151_x_at) / RFU TUBB4B (11761932_at) / Fold change /veh TUBB4B (11761932_at) / RFU CAPN14 (11732068_a_at) / Fold change /veh CAPN14 (11732068_a_at) / RFU TMCC2 (11721928_a_at) / Fold change /veh TMCC2 (11721928_a_at) / RFU IRGQ (11745062_a_at) / Fold change /veh IRGQ (11745062_a_at) / RFU FAM174B (11720279_a_at) / Fold change /veh FAM174B (11720279_a_at) / RFU TMPRSS4 (11748680_a_at) / Fold change /veh TMPRSS4 (11748680_a_at) / RFU FAM212B (11763350_a_at) / Fold change /veh FAM212B (11763350_a_at) / RFU PLEKHG5 (11743358_a_at) / Fold change /veh PLEKHG5 (11743358_a_at) / RFU ZSCAN30 (11745921_a_at) / Fold change /veh ZSCAN30 (11745921_a_at) / RFU CMKLR1 (11741424_a_at) / Fold change /veh CMKLR1 (11741424_a_at) / RFU LOC101060620 /// MAPK8IP1 (11723275_at) / Fold change /veh LOC101060620 /// MAPK8IP1 (11723275_at) / RFU SPTSSB (11747773_x_at) / Fold change /veh SPTSSB (11747773_x_at) / RFU PRSS12 (11739890_at) / Fold change /veh PRSS12 (11739890_at) / RFU BIN1 (11741810_x_at) / Fold change /veh BIN1 (11741810_x_at) / RFU WNT11 (11732464_a_at) / Fold change /veh WNT11 (11732464_a_at) / RFU C10orf10 (11716521_a_at) / Fold change /veh C10orf10 (11716521_a_at) / RFU C5orf56 (11738089_at) / Fold change /veh C5orf56 (11738089_at) / RFU CYB561 (11721691_x_at) / Fold change /veh CYB561 (11721691_x_at) / RFU ANKRD19P (11752326_a_at) / Fold change /veh ANKRD19P (11752326_a_at) / RFU OR2T12 /// OR2T33 /// OR2T8 (11738714_s_at) / Fold change /veh OR2T12 /// OR2T33 /// OR2T8 (11738714_s_at) / RFU VCAN (11748164_a_at) / Fold change /veh VCAN (11748164_a_at) / RFU JSRP1 (11732532_at) / Fold change /veh JSRP1 (11732532_at) / RFU KRTAP10-11 (11738290_x_at) / Fold change /veh KRTAP10-11 (11738290_x_at) / RFU MYO3A (11730013_a_at) / Fold change /veh MYO3A (11730013_a_at) / RFU EBF3 (11725865_a_at) / Fold change /veh EBF3 (11725865_a_at) / RFU CAMK2N1 (11719241_x_at) / Fold change /veh CAMK2N1 (11719241_x_at) / RFU C5orf56 (11738088_a_at) / Fold change /veh C5orf56 (11738088_a_at) / RFU OLFML3 (11715873_a_at) / Fold change /veh OLFML3 (11715873_a_at) / RFU LOC100653217 /// NTM (11731650_a_at) / Fold change /veh LOC100653217 /// NTM (11731650_a_at) / RFU MAPK11 (11762145_a_at) / Fold change /veh MAPK11 (11762145_a_at) / RFU FIZ1 (11724087_x_at) / Fold change /veh FIZ1 (11724087_x_at) / RFU OASL (11726364_x_at) / Fold change /veh OASL (11726364_x_at) / RFU SOX15 (11748057_x_at) / Fold change /veh SOX15 (11748057_x_at) / RFU CD79A (11719716_a_at) / Fold change /veh CD79A (11719716_a_at) / RFU HIST1H1D (11736915_at) / Fold change /veh HIST1H1D (11736915_at) / RFU CASKIN2 (11723855_a_at) / Fold change /veh CASKIN2 (11723855_a_at) / RFU LOC730098 (11760151_x_at) / Fold change /veh LOC730098 (11760151_x_at) / RFU OR4N2 (11742367_at) / Fold change /veh OR4N2 (11742367_at) / RFU PRRT2 (11749266_a_at) / Fold change /veh PRRT2 (11749266_a_at) / RFU SNX32 (11753110_a_at) / Fold change /veh SNX32 (11753110_a_at) / RFU CDHR5 (11726645_a_at) / Fold change /veh CDHR5 (11726645_a_at) / RFU RCAN1 (11760418_a_at) / Fold change /veh RCAN1 (11760418_a_at) / RFU FAM167A (11723789_a_at) / Fold change /veh FAM167A (11723789_a_at) / RFU FAM26E (11764081_at) / Fold change /veh FAM26E (11764081_at) / RFU ISYNA1 (11749810_s_at) / Fold change /veh ISYNA1 (11749810_s_at) / RFU ACY1 (11761880_at) / Fold change /veh ACY1 (11761880_at) / RFU 11764098_at / Fold change /veh 11764098_at / RFU SAMD14 (11745864_x_at) / Fold change /veh SAMD14 (11745864_x_at) / RFU NPB (11741838_a_at) / Fold change /veh NPB (11741838_a_at) / RFU TMPRSS6 (11731388_a_at) / Fold change /veh TMPRSS6 (11731388_a_at) / RFU KRTAP10-2 (11738614_at) / Fold change /veh KRTAP10-2 (11738614_at) / RFU ARHGAP8 /// PRR5-ARHGAP8 (11727945_x_at) / Fold change /veh ARHGAP8 /// PRR5-ARHGAP8 (11727945_x_at) / RFU KRTAP5-7 /// NADSYN1 (11734609_at) / Fold change /veh KRTAP5-7 /// NADSYN1 (11734609_at) / RFU RASL12 (11751679_a_at) / Fold change /veh RASL12 (11751679_a_at) / RFU CDKN2B (11736163_a_at) / Fold change /veh CDKN2B (11736163_a_at) / RFU PRF1 (11729649_at) / Fold change /veh PRF1 (11729649_at) / RFU, ZNF638 /// ZNF638-IT1 / Fold change vs veh, ZNF638 /// ZNF638-IT1 / RFU, PANK3 / Fold change vs veh, PANK3 / RFU, SH3YL1 / Fold change vs veh, SH3YL1 / RFU, ZEB2 / Fold change vs veh, ZEB2 / RFU, NRIP1 / Fold change vs veh, NRIP1 / RFU, PTTG1IP / Fold change vs veh, PTTG1IP / RFU, CAPN2 / Fold change vs veh, CAPN2 / RFU, MED14 / Fold change vs veh, MED14 / RFU, SNORA58 / Fold change vs veh, SNORA58 / RFU, C1orf63 / Fold change vs veh, C1orf63 / RFU, LRRFIP1 / Fold change vs veh, LRRFIP1 / RFU, NDUFAF7 / Fold change vs veh, NDUFAF7 / RFU, SLC12A2 / Fold change vs veh, SLC12A2 / RFU, IBTK / Fold change vs veh, IBTK / RFU, ESF1 / Fold change vs veh, ESF1 / Fold change vs veh, TMEM50B / RFU, TAOK1 / Fold change vs veh, TAOK1 / RFU, ACBD3 / Fold change vs veh, ACBD3 / RFU, TMA16 / Fold change vs veh, TMA16 / RFU, RWDD3 / Fold change vs veh, RWDD3 / RFU, BCAT1 / Fold change vs veh, BCAT1 / RFU, EDEM3 / Fold change vs veh, EDEM3 / RFU, TMEM33 / Fold change vs veh, TMEM33 / RFU, WDR75 / Fold change vs veh, WDR75 / RFU, AHCTF1 / Fold change vs veh, AHCTF1 / RFU, TFRC / Fold change vs veh, TFRC / RFU, ZDHHC17 / Fold change vs veh, ZDHHC17 / RFU, NOM1 / Fold change vs veh, NOM1 / RFU, ARL8B / Fold change vs veh, ARL8B / RFU, ZBTB11 / Fold change vs veh, ZBTB11 / RFU, TAMM41 / Fold change vs veh, TAMM41 / RFU, KIAA1704 /// LOC100996395 / Fold change vs veh, KIAA1704 /// LOC100996395 / RFU, ING1 / Fold change vs veh, ING1 / RFU, TRMT61B / Fold change vs veh, TRMT61B / RFU, FUBP3 / Fold change vs veh, FUBP3 / RFU, TP53 / Fold change vs veh, TP53 / RFU, TNKS2 / Fold change vs veh, TNKS2 / RFU, ZFP14 / Fold change vs veh, ZFP14 / RFU, ACTR2 / Fold change vs veh, ACTR2 / RFU, PPP3R1 / Fold change vs veh, PPP3R1 / RFU, PIK3R1 / Fold change vs veh, PIK3R1 / RFU, HNRNPA1 / Fold change vs veh, HNRNPA1 / RFU, RNF170 / Fold change vs veh, RNF170 / RFU, ZNF28 / Fold change vs veh, ZNF28 / RFU, RNGTT / Fold change vs veh, RNGTT / RFU, OGT / Fold change vs veh, OGT / RFU, BRD1 / Fold change vs veh, BRD1 / RFU, MARS / Fold change vs veh, MARS / RFU, ZNF655 / Fold change vs veh, ZNF655 / RFU, FAHD1 / Fold change vs veh, FAHD1 / RFU, BDP1 / Fold change vs veh, BDP1 / RFU, LRRCC1 / Fold change vs veh, LRRCC1 / RFU, ARID1A / Fold change vs veh, ARID1A / RFU, ZNF146 / Fold change vs veh, ZNF146 / RFU, ZNF330 / Fold change vs veh, ZNF330 / RFU, GPN3 / Fold change vs veh, GPN3 / RFU, C9orf123 / Fold change vs veh, C9orf123 / RFU, N4BP2L2 / Fold change vs veh, N4BP2L2 / RFU, ARFIP1 / Fold change vs veh, ARFIP1 / RFU, FAM179B / Fold change vs veh, FAM179B / RFU, BCL10 / Fold change vs veh, BCL10 / RFU, UHRF1BP1L / Fold change vs veh, UHRF1BP1L / RFU, BET1 / Fold change vs veh, BET1 / RFU, CNOT2 / Fold change vs veh, CNOT2 / RFU, ZNF268 / Fold change vs veh, ZNF268 / Fold change vs veh, ZNF507 / RFU, DGCR2 / Fold change vs veh, DGCR2 / RFU, WDSUB1 / Fold change vs veh, WDSUB1 / Fold change vs veh, HSP90B1 /// MIR3652 / RFU, ADSS / Fold change vs veh, ADSS / RFU, GK / Fold change vs veh, GK / RFU, ZNF148 / Fold change vs veh, ZNF148 / RFU, TAF9 / Fold change vs veh, TAF9 / RFU, SLC1A5 / Fold change vs veh, SLC1A5 / RFU, SLMO2 / Fold change vs veh, SLMO2 / RFU, ABCC4 / Fold change vs veh, ABCC4 / RFU, LOC101060439 /// RAP1B / Fold change vs veh, LOC101060439 /// RAP1B / RFU, RFX7 / Fold change vs veh, RFX7 / RFU, GTPBP10 / Fold change vs veh, GTPBP10 / RFU, CNEP1R1 / Fold change vs veh, CNEP1R1 / RFU, BIVM-ERCC5 /// ERCC5 / Fold change vs veh, BIVM-ERCC5 /// ERCC5 / RFU, ILF3 / Fold change vs veh, ILF3 / RFU 11762660_at / Fold change /veh 11762660_at / RFU VCAN (11757783_s_at) / Fold change /veh VCAN (11757783_s_at) / RFU DDX43 (11728927_at) / Fold change /veh DDX43 (11728927_at) / RFU KRT8 (11758188_x_at) / Fold change /veh KRT8 (11758188_x_at) / RFU NKD1 (11759106_at) / Fold change /veh NKD1 (11759106_at) / RFU SRD5A1 (11742802_a_at) / Fold change /veh SRD5A1 (11742802_a_at) / RFU TPSAB1 /// TPSB2 (11721975_s_at) / Fold change /veh TPSAB1 /// TPSB2 (11721975_s_at) / RFU GSTM3 (11746129_a_at) / Fold change /veh GSTM3 (11746129_a_at) / RFU IL23R (11737362_x_at) / Fold change /veh IL23R (11737362_x_at) / RFU TMEM51 (11727254_a_at) / Fold change /veh TMEM51 (11727254_a_at) / RFU PIWIL2 (11732686_x_at) / Fold change /veh PIWIL2 (11732686_x_at) / RFU ORM1 (11744905_x_at) / Fold change /veh ORM1 (11744905_x_at) / RFU CCDC152 (11743942_at) / Fold change /veh CCDC152 (11743942_at) / RFU ECM1 (11717891_a_at) / Fold change /veh ECM1 (11717891_a_at) / RFU IL23R (11748794_a_at) / Fold change /veh IL23R (11748794_a_at) / RFU TNFAIP8L3 (11732012_x_at) / Fold change /veh TNFAIP8L3 (11732012_x_at) / RFU MBOAT4 (11741988_at) / Fold change /veh MBOAT4 (11741988_at) / RFU 11764193_at / Fold change /veh 11764193_at / RFU TMEM53 (11763286_at) / Fold change /veh TMEM53 (11763286_at) / RFU MAGEB2 (11727129_at) / Fold change /veh MAGEB2 (11727129_at) / RFU TMEM200A (11744735_a_at) / Fold change /veh TMEM200A (11744735_a_at) / RFU CCDC152 (11751479_a_at) / Fold change /veh CCDC152 (11751479_a_at) / RFU FAM211A (11726209_a_at) / Fold change /veh FAM211A (11726209_a_at) / RFU RGS16 (11746705_a_at) / Fold change /veh RGS16 (11746705_a_at) / RFU VCAN (11755009_s_at) / Fold change /veh VCAN (11755009_s_at) / RFU RHOB (11743442_s_at) / Fold change /veh RHOB (11743442_s_at) / RFU RGS16 (11720943_a_at) / Fold change /veh RGS16 (11720943_a_at) / RFU RGS16 (11720944_at) / Fold change /veh RGS16 (11720944_at) / RFU, VPS4B / Fold change vs veh, VPS4B / RFU, CREB1 / Fold change vs veh, CREB1 / RFU, DNAJC13 / Fold change vs veh, DNAJC13 / RFU, GNAQ / Fold change vs veh, GNAQ / RFU, CDK5R1 / Fold change vs veh, CDK5R1 / RFU, ZRANB3 / Fold change vs veh, ZRANB3 / RFU, CUL4A / Fold change vs veh, CUL4A / RFU, CCNY / Fold change vs veh, CCNY / RFU, UFL1 / Fold change vs veh, UFL1 / RFU, COG3 / Fold change vs veh, COG3 / RFU, DIAPH2 / Fold change vs veh, DIAPH2 / RFU, SKA2 / Fold change vs veh, SKA2 / RFU, AFF3 / Fold change vs veh, AFF3 / RFU, LMF1 / Fold change vs veh, LMF1 / RFU, IPO11 / Fold change vs veh, IPO11 / RFU, DFFB / Fold change vs veh, DFFB / RFU, FOXP1 / Fold change vs veh, FOXP1 / RFU, CARD8 / Fold change vs veh, CARD8 / RFU, STRN3 / Fold change vs veh, STRN3 / RFU, ADK / Fold change vs veh, ADK / RFU, RASSF2 / Fold change vs veh, RASSF2 / RFU, WIPF1 / Fold change vs veh, WIPF1 / RFU, LARP1B / Fold change vs veh, LARP1B / RFU, RASA1 / Fold change vs veh, RASA1 / RFU, RB1 / Fold change vs veh, RB1 / RFU, PPFIA1 / Fold change vs veh, PPFIA1 / RFU, MAT2A / Fold change vs veh, MAT2A / RFU, CCT5 / Fold change vs veh, CCT5 / RFU, WDR92 / Fold change vs veh, WDR92 / RFU, CUX1 / Fold change vs veh, CUX1 / RFU, TTC7A / Fold change vs veh, TTC7A / RFU, TMEM135 / Fold change vs veh, TMEM135 / RFU, DEPTOR / Fold change vs veh, DEPTOR / RFU, CPM / Fold change vs veh, CPM / RFU, DNAJB6 / Fold change vs veh, DNAJB6 / RFU, CACNA2D3 / Fold change vs veh, CACNA2D3 / RFU, DTX4 / Fold change vs veh, DTX4 / RFU, TFCP2 / Fold change vs veh, TFCP2 / RFU, GMCL1 /// GMCL1P1 / Fold change vs veh, GMCL1 /// GMCL1P1 / RFU, AEBP2 / Fold change vs veh, AEBP2 / RFU, SNHG1 /// SNORD22 /// SNORD25 /// SNORD26 /// SNORD27 /// SNORD28 /// SNORD29 /// SNORD31 / Fold change vs veh, SNHG1 /// SNORD22 /// SNORD25 /// SNORD26 /// SNORD27 /// SNORD28 /// SNORD29 /// SNORD31 / Fold change (Aza/veh), C12orf56 (ProbeSet 11735607_a_at) / Fold change (ACY-1035/veh), C12orf56 (ProbeSet 11735607_a_at) / Fold change (Aza/veh), FGFR1OP (ProbeSet 11751329_s_at) / Fold change (ACY-1035/veh), FGFR1OP (ProbeSet 11751329_s_at) / Fold change (Aza/veh), VPS36 (ProbeSet 11739960_a_at) / Fold change (ACY-1035/veh), VPS36 (ProbeSet 11739960_a_at) / RFU SYPL1 (11715823_x_at) / Fold change /veh SYPL1 (11715823_x_at) / RFU IGFBP7 (11715501_s_at) / Fold change /veh IGFBP7 (11715501_s_at) / RFU REEP3 (11722064_at) / Fold change /veh REEP3 (11722064_at) / RFU IGLL1 (11728026_x_at) / Fold change /veh IGLL1 (11728026_x_at): dose or concentration left out as unconfirmed
# Conditions: MV-4-11 cells, 48 hours
structure (smiles),measurement,value
Nc1ccc(-c2cccs2)cc1NC(=O)c1ccc2c(c1)cc(C1CC1)n2CCN1CCOCC1 [ACY-1035],RFU IL23R (11748794_a_at),5.77 RFU
